How the values were obtained:
Format in all cases: physicochemical
[1] = Durability in solvent cast polycarbonate film, Atlas C165 Xenon-arc, ASTM G26 (Example 80); details: for % Loss / Absorbance (max) Loss units: 1100 hrs
Protocol: (§1) The durability of representative benzotriazoles in thermoplastic substrates is determined by incorporating various test compounds into solvent cast films of poly(vinyl chloride), polycarbonate and polystyrene resins. The free standing films are mounted into cardboard holders, secured in metal frames and exposed in an Atlas C165 Xenon-arc Weather-Ometer under dry conditions according to ASTM G26 for 1100 and 2200 hour exposure. Loss of UV absorber is determined by monitoring the loss of diagnostic UV absorption as described earlier. Performance is measured by a change in color or the physical integrity of the film.
Polycarbonate flake (LEXAN® 145, General Electric) is dissolved in methylene chloride at room temperature along with between 1 and 3% by weight of test benzotriazole, based on the polycarbonate. Films are cast using a calibrated drawdown bar to prepare 1 mil thick film after drying.

[2] = Durability in solvent cast PVC films, Atlas C165 Weather-Ometer (Example 83); details: PVC film; for % Loss / Absorbance (max) Loss units: 1100 hrs
Protocol: as §1
PVC films of GEON® 27 (Geon Co.) are solvent cast as described above with warm tetrahydrofuran (THF) and exposed in an Atlas C165 Weather-Ometer as described in Example 60 for 1100 hours.

[3] = UV absorption data (Example 74); details: 20 mg/l concentrations; not the molar extinction values
Protocol: In the following examples the absorbance at 375 nm is reported for 20 mg/l concentrations. This is not the molar extinction values.

[4] = Yellowness color of solutions in butyl acetate, Macbeth Color-Eye (Example 75); details: 30 mg/100 mL in butyl acetate; for DE: corresponding Yellowness Index value; for b: yellowness, Macbeth Color-Eye
Protocol: The following examples show the difference in color between some of the instant compounds as measured by a Macbeth Color-Eye instrument at a concentration of 30 mg/100 mL in butyl acetate. […] In the table, the compounds are listed by increasing b value. The instrument measures yellowness as b and DE is the corresponding Yellowness Index value.

[5] = UV absorption data (Example 74); design: ε @ λ max: unit not given beside the values
[6] = Loss of UV absorber from high solids thermoset acrylic clear coat, Xenon Arc Weather-Ometer (Example 77); details: after 1211 hours Xenon arc exposure; clear coat with 1% hindered amine; UV absorber at 5 mmol % by weight
Protocol: To ascertain the effect on thermal durability and loss rate from a high solids thermoset acrylic coating of various 2H-benzotriazole UV absorbers substituted by a variety of electron withdrawing and electron donating groups, the following tests are carried out.
A high solids thermoset acrylic clear coat is prepared by mixing an experimental acrylic polyol resin and hexamethoxymethylmelamine (Resimene® 747, Monsanto) at a solids ratio of 60/40. The dodecylbenzene sulfonic acid catalyst (Nacure® 5225; King Industries) is added at 0.70% by weight. A flow aid Modaflow® (Monsanto) is added at 0.25% by weight to form a model acrylic melamine resin system.
The model clear coat is reduced with xylene to a viscosity of 26-27 second using a Zahn #2 cup and applied via a conventional air spray at 50 psi (3.5 Kg/cm^2) over a 1″×3″ (2.54 cm×7.62 cm) quartz slide. Cure is achieved by baking the slide for 30 minutes at 260° F. (127° C.). The clear coat is stabilized with 1% by weight of a hindered amine light stabilizer, bis-(1-octyloxy-2,2,6,6-tetramethylpiperidin-4-yl)sebacate, (TINUVIN® 123, Ciba-Geigy). The various test benzotriazole UV absorbers are incorporated at the 5 mmol % by weight in the clear coat. The film thickness on the quartz slides range from 1.15 to 1.41 mils (0.029 to 0.036 mm).
The films on the quartz slides are weathered according to the following conditions in Xenon Arc Weather-Ometer with a controlled irradiance at 6500 W, using inner quartz and outer borosilicate S-type filter. The irradiation cycle is as follows: 40 minutes of straight irradiation with no water spray, followed by 20 minutes of light plus front spray, followed by 60 minutes of light irradiation and finally by 60 minutes dart plus rear spray (condensation). The setting is at 0.55 W/M^2 at 340 nm, 1.98 kJ/hour. In the light cycle the black panel temperature is controlled at 70±2° C. The relative humidity in the light cycle is in the range of 50-55% and in the dark cycle 100%. The absorbance of the long wavelength UV band as a function of Xenon arc weathering hours are recorded in the table below.
To follow the loss of UV absorbers from the clear coats, UV spectra are measured initially and after weathering at regular time intervals. The UV spectrophotometer measures absorbance linearly up to 5.5 absorbance units using a reference beam attenuation technique.
This is tested by following the ratio of absorbance of the band at about 300 nm and the band at about 340 nm.
The data in the table below are based on formula A after 1211 hours of exposure of the clear coats containing the test benzotriazole UV absorbers.

[7] = Loss of UV absorber from high solids thermoset acrylic melamine clear coat, Xenon-Arc X180 cycle (Example 78); details: for durability (low loss rate absorbance values after exposure): in words, summary of the tables of Example 78
Excerpt: Following the general procedure of Example 77, a number of additional benzotriazole test compounds are incorporated into a high solids thermoset acrylic melamine resin at such concentrations between 1.93 and 3% by weight to give equal molar concentrations of test benzotriazole in equal film thickness, and sufficient to give a starting absorbance of approximately 2.0 absorbance units.
The test discs are exposed in a Xenon-Arc Weather-Ometer at X180 cycle (0.45 Watts/M^2). The initial UV absorbance is measured followed by measurements at roughly 250 hour intervals for the first 2000 hours and every 500 hours thereafter. Each clear coat also contains 1% by weight of a hindered amine light stabilizer, bis-(1-octyloxy-2,2,6,6-tetramethylpiperidin-4-yl) sebacate, as well.

[8] = after 1253 hours of exposure, starting absorbance approximately 2.0, 1% hindered amine

## CCCCCCCCCS(=O)(=O)c1ccc2nn(-c3cc(C(C)(C)CC(C)(C)C)cc(C(C)(C)c4ccccc4)c3O)nc2c1 [AA, 5-nonylsulfonyl-2-(2-hydroxy-3-α-cumyl-5-tert-octylphenyl)-2H-benzotriazole]
[1]; 2.5 wt %
  Absorbance (max) 1100 hrs: 1.300
  % Loss: 2.5%
  Absorbance (max) Loss units: 0.033
[1]; 2.5 wt %, AA at 364 nm
  Absorbance (max) 0 hrs: 1.333
[2]; 2.5 wt %
  Absorbance (max) 1100 hrs: 1.103
  % Loss: 3.1%
  Absorbance (max) Loss units: 0.036
[2]; 2.5 wt %, AA at 368 nm
  Absorbance (max) 0 hrs: 1.149

## CCCCS(=O)(=O)c1ccc2nn(-c3cc(C(C)(C)CC(C)(C)C)cc(C(C)(C)c4ccccc4)c3O)nc2c1 [CC, 5-butylsulfonyl-2-(2-hydroxy-3-α-cumyl-5-tert-octylphenyl)-2H-benzotriazole]
[3]
  Absorbance @ 375 nm: 0.42
[4]
  DE: 3.35
  b: 2.84
[5]
  ε @ λ max: 14,100
  λ max nm: 359 nm

## CC(C)(C)CC(C)(C)c1ccc(O)c(-n2nc3ccccc3n2)c1 [Compound A, 2-(2-hydroxy-5-tert-octylphenyl)-2H-benzotriazole]
[6]
  Units Absorbance Loss: 1.7982

## CC(C)(C)CC(C)(C)c1cc(Cc2cc(C(C)(C)CC(C)(C)C)cc(-n3nc4ccccc4n3)c2O)c(O)c(-n2nc3ccccc3n2)c1 [Compound B, 2,2′-Methylene-bis[6-(2H-benzotriazol-2-yl)-4-tert-octylphenol]]
[6]
  Units Absorbance Loss: 1.6300

## CC(C)(C)c1cc(CCCO)cc(-n2nc3ccccc3n2)c1O [Compound L]
[6]
  Units Absorbance Loss: 0.3712

## CC(C)(c1ccccc1)c1cc(-n2nc3ccccc3n2)c(O)c(C(C)(C)c2ccccc2)c1 [Compound P, 2-(2-hydroxy-3,5-di-α-cumylphenyl)-2H-benzotriazole]
[6]
  Units Absorbance Loss: 0.2576
[1]; 1.5 wt %
  Absorbance (max) 1100 hrs: 0.919
  % Loss: 13.5%
  Absorbance (max) Loss units: 0.143
[1]; 1.5 wt %, P at 347 nm
  Absorbance (max) 0 hrs: 1.062
[1]; 2.5 wt %
  Absorbance (max) 1100 hrs: 1.844
  % Loss: 12.3%
  Absorbance (max) Loss units: 0.260
[1]; 2.5 wt %, AA at 364 nm
  Absorbance (max) 0 hrs: 2.104
[2]; 1.5 wt %
  Absorbance (max) 1100 hrs: 1.022
  % Loss: 10.7%
  Absorbance (max) Loss units: 0.123
[2]; 1.5 wt %, P at 347 nm
  Absorbance (max) 0 hrs: 1.145
[2]; 2.5 wt %
  Absorbance (max) 1100 hrs: 2.081
  % Loss: 5.6%
  Absorbance (max) Loss units: 0.130
[2]; 2.5 wt %, AA at 368 nm
  Absorbance (max) 0 hrs: 2.211

## COC(=O)c1ccc2nn(-c3cc(C(C)(C)CC(C)(C)C)cc(C(C)(C)c4ccccc4)c3O)nc2c1 [DD, 5-carbomethoxy-2-(2-hydroxy-3-α-cumyl-5-tert-octylphenyl)-2H-benzotriazole]
[3]
  Absorbance @ 375 nm: 0.42
[4]
  DE: 2.25
  b: 1.85
[5]
  ε @ λ max: 15,700
  λ max nm: 358 nm

## COC(=O)CCc1ccc(O)c(-n2nc3ccccc3n2)c1 [D]
[6]
  Units Absorbance Loss: 1.4002

## COc1ccc2nn(-c3cc(C)cc(C(C)(C)C)c3O)nc2c1 [E]
[6]
  Units Absorbance Loss: 1.1872

## CC(C)CCCCCOC(=O)CCc1cc(-n2nc3ccc(C(F)(F)F)cc3n2)c(O)c(C(C)(C)C)c1 [FF, isooctyl 3-(5-trifluoromethyl-2H-benzotriazol-2-yl)-5-tert-butyl-4-hydroxyhydro-cinnamate]
[4]
  DE: 0.72
  b: 0.54

## COC(=O)CCc1cc(-n2nc3ccccc3n2)c(O)c(C(C)(C)C)c1 [F]
[6]
  Units Absorbance Loss: 0.5259

## CC(C)(c1ccccc1)c1ccc(O)c(-n2nc3ccccc3n2)c1 [G]
[6]
  Units Absorbance Loss: 0.4527

## CC(C)(C)CC(C)(C)c1cc(C(C)(C)c2ccccc2)cc(-n2nc3ccccc3n2)c1O [I]
[6]
  Units Absorbance Loss: 0.4299

## CC(C)(C)CC(C)(C)c1cc(-n2nc3ccccc3n2)c(O)c(C(C)(C)CC(C)(C)C)c1 [K]
[6]
  Units Absorbance Loss: 0.3777

## COC(=O)CCc1cc(-n2nc3ccccc3n2)c(O)c(C(C)(C)c2ccccc2)c1 [M]
[6]
  Units Absorbance Loss: 0.3433

## CC(C)(C)c1cc(-n2nc3ccc(C#N)cc3n2)c(O)c(C(C)(C)C)c1 [N]
[6]
  Units Absorbance Loss: 0.3098

## CC(C)(c1ccccc1)c1cc(-c2ccccc2)c(O)c(-n2nc3ccccc3n2)c1 [R]
[7]; [8]
  Units Absorbance Loss: 0.2424
[7]; after 1489 hours of exposure
  Units Absorbance Loss: 0.3724
[7]; after 2521 hours of exposure
  Units Absorbance Loss: 0.4824

## CC(C)(C)c1cc(-n2nc3ccc(S(=O)(=O)c4ccccc4)cc3n2)c(O)c(C(C)(C)C)c1 [T]
[7]; [8]
  Units Absorbance Loss: 0.1827
[7]; after 1264 hours of exposure
  Units Absorbance Loss: 0.1965
[7]; after 1489 hours of exposure
  Units Absorbance Loss: 0.2654
[7]; after 1518 hours of exposure
  Units Absorbance Loss: 0.2423
[7]; after 2521 hours of exposure
  Units Absorbance Loss: 0.3570
[7]
  durability (low loss rate absorbance values after exposure): significantly more durable

## CC(C)(C)CC(C)(C)c1cc(-n2nc3ccc(Cl)cc3n2)c(O)c(C(C)(C)c2ccccc2)c1 [V, 5-Chloro-2-(2-hydroxy-3-α-cumyl-5-tert-octylphenyl)-2H-benzotriazole]
[7]; after 1264 hours of exposure
  Units Absorbance Loss: 0.1719
[7]; after 1518 hours of exposure
  Units Absorbance Loss: 0.1955
[7]
  durability (low loss rate absorbance values after exposure): especially durable

## CC(C)(C)CC(C)(C)c1cc(-n2nc3ccc(F)cc3n2)c(O)c(C(C)(C)c2ccccc2)c1 [W, 5-Fluoro-2-(2-hydroxy-3-α-cumyl-5-tert-octylphenyl)-2H-benzotriazole]
[7]; after 1264 hours of exposure
  Units Absorbance Loss: 0.1655
[7]; after 1518 hours of exposure
  Units Absorbance Loss: 0.1668
[7]
  durability (low loss rate absorbance values after exposure): especially durable

## CC(C)(C)CC(C)(C)c1cc(-c2ccccc2)c(O)c(-n2nc3ccccc3n2)c1 [X]
[7]; after 1264 hours of exposure
  Units Absorbance Loss: 0.1796
[7]; after 1518 hours of exposure
  Units Absorbance Loss: 0.2220
